Activity calls are given as the source filed them.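 Rule for the calls: active = maximal inhibition of the USP30 enzyme reaching 30% or more across the dose series; inactive = the rest.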
Molecular target: Ubiquitin carboxyl-terminal hydrolase 30 (Homo sapiens) (UniProt Q70CQ3)
Assay: ubiquitin-specific protease 30 DUB inhibitors, concentration-effect, biochemical, validation of primary actives (AID 1645865)
Details: purified USP30, Ub-rhodamine cleavage, fluorescence, 2 h

Chain of Ubiquitin carboxyl-terminal hydrolase 30 (Homo sapiens) (Q70CQ3 whole entry, looked up): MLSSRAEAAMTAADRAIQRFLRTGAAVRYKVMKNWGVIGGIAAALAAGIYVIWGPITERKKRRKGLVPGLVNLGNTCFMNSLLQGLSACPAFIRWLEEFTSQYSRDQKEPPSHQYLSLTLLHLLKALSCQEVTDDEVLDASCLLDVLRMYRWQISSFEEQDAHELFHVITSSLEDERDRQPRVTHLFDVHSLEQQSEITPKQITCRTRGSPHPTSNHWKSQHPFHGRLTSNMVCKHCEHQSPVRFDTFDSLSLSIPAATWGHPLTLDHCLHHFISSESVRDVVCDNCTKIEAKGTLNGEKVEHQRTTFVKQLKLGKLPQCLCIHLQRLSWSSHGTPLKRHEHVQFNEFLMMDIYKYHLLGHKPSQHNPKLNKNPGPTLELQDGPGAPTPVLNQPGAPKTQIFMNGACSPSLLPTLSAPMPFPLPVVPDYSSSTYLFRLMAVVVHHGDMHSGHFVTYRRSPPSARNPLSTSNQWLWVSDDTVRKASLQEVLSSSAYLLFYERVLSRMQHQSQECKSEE

Compound	IC50
COc1cc(OC)cc(-n2c(=O)c3sccc3n(CC(=O)c3ccc(F)cc3)c2=O)c1	31.3 µM
COc1ccc(/C=C\c2nccc3c2[nH]c2ccccc23)cc1	> 50 µM (inactive)
COc1ccc(OC)c(NC(=O)c2cc(Cl)ccc2OC)c1	1.59 µM
CSc1ccccc1NC(=O)c1ccc(-n2cccn2)nn1	2.32 µM
CCC(CC)n1[nH]c(=O)c2c1NC(=O)CSC2c1ccc2c(c1)OCO2 (stereo not drawn)	16.7 µM
CC1OC2CC(O)C1(O)C1=C2C(O)=C(C(N)=O)C(=N)C1=O (stereo not drawn)	> 50 µM (inactive)
COc1ccc(CCNC(=O)COc2ncnc3oc(C)c(C)c23)cc1OC	> 50 µM (inactive)
CC(C)c1nc2sc3c(NCc4ccco4)ncnc3c2c2c1CCC2	> 50 µM (inactive)
Cc1ccccc1C(=O)c1ccc(C(=O)NC2CCCCCC2)[nH]1	2.41 µM
O=C(COc1nc2ccccc2nc1N1CCOCC1)NC(c1ccccc1)c1ccccc1	> 50 µM (inactive)
O=S(=O)(O)c1cc2cc3ccccc3cc2[nH]1	> 50 µM (inactive)
O=C(NCc1nc(-c2ccc3c(c2)[nH]c(=O)n3C2CCCC2)no1)c1ccccc1	> 50 µM (inactive)
Cc1c(-c2nc(-c3ccccc3Cl)no2)nnn1-c1cccc(F)c1	4.07 µM
CCOc1ccc(-c2noc(-c3nn(-c4cccc(OC)c4)ccc3=O)n2)cc1	3.45 µM
CCc1noc(-c2ccc(OCC(=O)Nc3ccc(C)cc3C)cc2)n1	29 µM
CC1OC(CC(=O)O)CC23OC12C(=O)c1c(O)cccc1C3=O (stereo not drawn)	> 50 µM (inactive)
O=C(COc1ccc2ccccc2c1)Nc1cccc2ccccc12	21 µM
Cc1ccc2cccc(OCc3nnc(SCC(=O)c4ccc(Cl)cc4)n3C)c2n1	2.63 µM
CCOc1ccccc1NC(=O)Cn1c(-c2ccc3c(c2)OCO3)cn(-c2ccc(OC)cc2)c1=O	> 50 µM (inactive)
COc1ccc(OC)c(C2CC(=O)Nc3n[nH]c(-c4ccccc4)c32)c1 (stereo not drawn)	25.6 µM
Cc1cc(CSc2ncccc2C(=O)Nc2ccnn2Cc2cccnc2)no1	> 50 µM (inactive)

Compound	IC50
O=C(Cn1c(=O)n(Cc2ccco2)c(=O)c2ccc(C(=O)NC3CCCC3)cc21)NCc1ccco1	> 50 µM (inactive)
Cc1cc(C)nc(SCCn2c(N3CCC(Cc4ccccc4)CC3)nc3c2c(=O)n(C)c(=O)n3C)n1	46.9 µM
COc1ccc(C2CC(=O)Nc3ccc4ccccc4c32)c(OC)c1OC (stereo not drawn)	22.3 µM
Cc1ccc(C(=O)Nc2cc3c4c(c2)CC(=O)N4CCC3)cc1C	> 50 µM (inactive)
O=[N+]([O-])c1ccc(NCC2COc3ccccc3O2)c(Cl)c1 (stereo not drawn)	> 50 µM (inactive)
CCCC1Cc2c(sc3nc(SCC)nc(N)c23)CO1 (stereo not drawn)	13.8 µM
COC(=O)CC1CC23OC2(C(=O)c2c(O)cccc2C3=O)C(C)O1 (stereo not drawn)	> 50 µM (inactive)
O=C(Cn1c(=O)n(CCCC(=O)N2CC=C(c3ccccc3)CC2)c(=O)c2ccccc21)NCCC1=CCCCC1	> 50 µM (inactive)
Cc1c(C)n(-c2ccccc2)c2ncn(CC(=O)NCCCc3ccccc3)c(=O)c12	44.9 µM
COc1ccc(-c2cc(-c3ccc(O)cc3)nc(N)c2C#N)cc1OC	> 50 µM (inactive)
Cc1ccc2[nH]c3c(=O)n(CC4CCCO4)cnc3c2c1 (stereo not drawn)	17.9 µM
COc1cc(/C=C/C(=O)OCC(=O)Nc2ccc([N+](=O)[O-])cc2OC)ccc1O	28 µM
O=C(CSc1ncnc2c1oc1ccccc12)NC1CCCC1	20.7 µM
COc1ccc(OCCn2c(C3CC(=O)N(c4cccc(C)c4)C3)nc3ccccc32)cc1 (stereo not drawn)	0.356 µM
CC(C)(C)c1ccc(-c2nnc3n2-c2ccccc2SC3)cc1	19.1 µM
CCOc1ccc(N2C(=O)c3ccccc3C2C(=O)NCc2ccccc2OC)cc1 (stereo not drawn)	41.5 µM
CCCCNC(=O)C1Sc2nnc(-c3ccccc3)n2NC1c1ccccc1 (stereo not drawn)	21.8 µM
COc1ccccc1NC(=O)Cn1cc(C(=O)c2ccc(C)cc2)c(=O)c2ccccc21	22.9 µM
COc1cc(NC(=O)Cn2c(=O)n(-c3ccc(CC(=O)NC4CCCC4)cc3)c(=O)c3ccccc32)cc(OC)c1	> 50 µM (inactive)
Cc1ccc(-n2c(-c3ccccc3)cn3c4c(=O)[nH]c(=O)n(C)c4nc23)cc1C	0.286 µM
CCOc1ccccc1NC(=O)COc1cc(OC)ccc1C(=O)c1ccccc1	> 50 µM (inactive)

Next, values leading:

IC50	Compound
22.6 µM	O=C(Nc1ccc(F)cc1F)c1csc(-c2ccccc2)n1
49.6 µM	O=C(CSc1nc2cc(S(=O)(=O)Nc3ccccc3Cl)ccc2o1)Nc1ccc(N2CCOCC2)cc1
24.2 µM	O=C(Nc1ccc2c(c1)N(C(=O)C1CCCC1)CC2)c1c(F)cccc1F
14.1 µM	CN1C(=O)COc2ccc(NC(=O)c3cc(-c4ccccc4)on3)cc21
> 50 µM (inactive)	COc1ccc(NC(=O)CSc2nnc(Cc3cccc4ccccc34)n2C)cc1
9.57 µM	Cc1nc2ccc(NC(=O)COc3ccccc3[N+](=O)[O-])cc2s1
> 50 µM (inactive)	O=C(Nc1ccc2nccnc2c1)c1cccc(C(F)(F)F)c1
42.7 µM	COc1ccc(NC(=O)C2CCCN(S(=O)(=O)N3CCCCCC3)C2)cc1 (stereo not drawn)
42 µM	COc1ccc(OC)c(NC(=O)CS(=O)(=O)c2cn(CC(=O)N3CCC(C)CC3)c3ccccc23)c1
> 50 µM (inactive)	COc1cccc(N2CCN(C(=O)C3CCN(c4nc(NC(C)=O)ns4)CC3)CC2)c1
> 50 µM (inactive)	CCC(=O)Nc1ccc(-c2nc(Cn3cc(C)cn3)c(C)o2)cc1
29.6 µM	CCN1C(=O)COc2ccc(NC(=O)c3ccc(OCc4nonc4C)cc3)cc21
> 50 µM (inactive)	COc1cccc(NC(=O)c2nnn(-c3ccccc3)n2)c1
> 50 µM (inactive)	COc1ccc(NC(=O)CN2C(=O)c3ccccc3Sc3ccc(C(=O)N4CCCC4)cc32)c(OC)c1
47.5 µM	CCCCN1CC(C(=O)Nc2ccc(C(=O)Nc3ccc(F)c(Cl)c3)cc2)CC1=O (stereo not drawn)
31.1 µM	CS(=O)(=O)c1ccc(NC(=O)C2CN(c3nc4c(F)cccc4s3)C2)cc1

IC50	Compound
> 50 µM (inactive)	O=C(CNc1ccc(F)c(Cl)c1)Nc1ccc2c(c1)OCCO2
24.8 µM	Cc1ccc(NC(=O)c2ccn(COc3ccc(F)cc3)n2)nc1
38 µM	O=C(COc1ccc(F)cc1)Nc1cnc(-c2ccc(Cl)cc2)nc1
> 50 µM (inactive)	CCn1ccc2c(cc(C(=O)Nc3cccc(OC)c3)n2C)c1=O
4.05 µM	C[C@@H](C(=O)NCc1ccc(F)cc1)N1C(=O)N2CCc3c([nH]c4ccccc34)[C@@]2(C)C1=O
> 50 µM (inactive)	Cc1cccc(C(=O)N2CCc3cc(-c4nc(NC(=O)CNc5ccccc5)sc4C)ccc32)c1
25.5 µM	CC(=O)Nc1ccc(S(=O)(=O)N2CCCC(C(=O)Nc3cccc4ccccc34)C2)cc1 (stereo not drawn)
> 50 µM (inactive)	CC(C(=O)Nc1ccccc1)n1cnc2nc(N3CCCCC3)ncc2c1=O (stereo not drawn)
2.77 µM	CC(=O)c1ccc(NC(=O)CSc2nc(-c3ccccc3)nc3c2COC(C)(C)C3)cc1
31.4 µM	O=S(=O)(c1cccc(F)c1)N1CCN(c2nnnn2-c2ccccc2)CC1
34.1 µM	CC(C)(C)n1nc(C2CC2)c(Br)c1NC(=O)c1ccccc1F
2.6 µM	Cc1c(-c2nn3c(-c4ccco4)nnc3s2)cccc1[N+](=O)[O-]
> 50 µM (inactive)	CCN(CC)c1cc(C)c2cc(NC(=O)c3ccncc3)ccc2n1
> 50 µM (inactive)	O=C(NCc1ccc(F)cc1)C1CCCN(c2cnc3nccnc3c2)C1 (stereo not drawn)
> 5 µM (inactive)	Cc1ccc2c(c1)c(=O)c(C(=O)c1ccc(F)cc1)cn2CC(=O)Nc1ccc2c(c1)OCCO2

— PubChem BioAssay AID1645865 (Buhrlage Lab, Dana-Farber Cancer Institute and Novartis …, 2021)
